# Reference: US9061004B2, “15-PGDH in colon cancer” (Case Western Reserve University, priority 2009, dated 2015)
# Key:
# AOM induced colon tumors = experiment: AOM induced colon tumor development in FVB mice on dietary celecoxib; assay type: in vivo, mouse; conditions: for AOM induced colon tumors per mouse / AOM induced large colon tumors (>1 mm) per mouse: mean ± SEM
# Source text: To conduct this study FVB mice were selected, chosen because at baseline this mouse strain is sensitive to AOM induced colon tumors (Nambiar, P. R. et al., (2003) Int J Oncol 22, 145-50). In 15-PGDH wild-type FVB mice, AOM induced 2.3±0.4 tumors per mouse colon (FIG. 1A, 1C), which on histology review were all adenomatous lesions. As in human trials, administering dietary celecoxib protected wild-type FVB mice against colon tumor development, reducing adenoma development to 0.7±0.3 tumors per mouse (P=0.003) (FIG. 1A, 1C). Furthermore, while nearly all tumors arising in control mice exceeded 1 mm in size, tumors in celecoxib treated mice rarely reached this size (2.2±0.4 versus 0.3±0.1, P<0.0001) (FIG. 1B).
# Dietary celecoxib could thus near completely protect wild-type FVB mice from developing colon tumors. […] Thus, celecoxib treated 15-PGDH null mice developed 5.5-fold more colon adenomas than did their celecoxib treated 15-PGDH wild-type littermates (3.9±0.8 versus 0.7±0.3, P=0.0001) (FIG. 1A, 1C). Moreover, all colonic adenomas arising in celecoxib treated knockout mice were large, each exceeding 1 mm in size; whereas, large tumors were nearly completely absent in celecoxib treated 15-PGDH wild-type mice (3.9±0.8 large tumors per knockout mouse versus 0.3±0.1 per wild-type, P=0.0001) (FIG. 1B, 1C). By several measures, 15-PGDH knockout mice were almost completely resistant to the colon tumor prevention effects of celecoxib. […] Moreover, colon tumor development in celecoxib treated 15-PGDH knockout mice actually exceeded that of drug untreated wild-type mice (3.9±0.8 versus 2.2±0.4 respectively, for tumors >1 mm in size, P=0.04; and, 3.9±0.8 versus 2.3±0.4 respectively tumors of any size, P=0.06) (FIG. 1A, 1B). We conclude that celecoxib mediated colon tumor prevention requires concurrent presence of the prostaglandin inactivating activity of colonic 15-PGDH, and that 15-PGDH loss confers in vivo resistance to this drug effect.
# Mouse studies were conducted in the Case Animal Resource Center under a protocol approved by the Institutional Animal Care and Use Committee. 15-Hydroxyprostaglandin dehydrogenase (15-PGDH) knockout mice on a C57BL/6J background were generated as described previously (Myung, S. J. et al., (2006) Proc Natl Acad Sci USA 103, 12098-102; Coggins, K. G. et al, (2002) Nat Med 8, 91-2) and were bred to generation F8 onto an FVB/N (Jackson Laboratory, Bar Harbor, Me.) background, with genotyping done as previously described (Myung, S. J. et al., (2006) Proc Natl Acad Sci U S A 103, 12098-102). 15-PGDH +/− mice generation F8 were intercrossed and siblings of 15-PGDH +/+ and −/− genotypes were selected out for studies with AOM and celecoxib. Eight- to 12-week-old mice were administered AOM by i.p. injection once weekly for 6 weeks at 10mg/kg dose (Sigma Chemical Co., St. Louis, Mo.). Mice were euthanized 24 weeks after the last AOM injection. After euthanizing, the colons were opened longitudinally, rinsed with ice-cold PBS, and examined under a dissecting microscope to identify all tumors. Tumors were resected, fixed in 10% neutral buffered formalin, and paraffin-embedded for histologic examination. All mice received an AIN-76A diet (Harlan Teklad, Madison, Wis.). The diet of celecoxib treated mice was supplemented with 1250 mg/kg of this agent (LKT laboratories, St. Paul, Minn.) (Williams, C. S. et al., (2000) Cancer Res 60, 6045-51). In AOM studies, celecoxib supplementation was initiated starting the day of first AOM injection and continued throughout the lifetime of the mouse. In studies of colonic prostaglandin levels celecoxib was administered to a cohort of 8-12 week old mice continuously for 2 weeks, at which time mice were euthanized.
# Prostaglandin and celecoxib levels were log transformed in order to be approximately normally distributed for analysis with a generalized linear regression model with contrasts, generating two-sided P-values. […]
# PGE2 = experiment: Colonic mucosal PGE2 levels by LC/MS/MS after 2 weeks of celecoxib diet; assay type: in vivo, mouse; conditions: 2 weeks celecoxib diet, mean ± SEM
# Description: To further investigate the mechanism of celecoxib's dependence on 15-PGDH, we determined PGE2 levels in colonic mucosa of FVB mice under different experimental conditions. Consistent with the role of 15-PGDH in mediating prostaglandin degradation, 15-PGDH gene knockout essentially doubled FVB colonic PGE2 levels (9.1±1.5 ng/mg protein in knockouts versus 5.70±0.8 ng/mg protein in controls, P=0.04) (FIG. 1D). […] In contrast, in 15-PGDH knockout mice the biochemical activity of celecoxib was much attenuated, with the drug lowering PGE2 levels to only 4.7±0.8 ng/mg protein. […] In overview, the efficacy of celecoxib in lowering colonic PGE2 levels in these different models closely paralleled the drug's anti-tumor activity (FIG. 1D versus FIG. 1A, 1B), and mice that lacked 15-PGDH equally acquired resistance to celecoxib's biochemical activity of lowering colonic PGE2 and to celecoxib's phenotypic effect of preventing colon tumors. Celecoxib resistance of 15-PGDH null mice was not due to any change in drug absorption or catabolism, as tissue levels of celecoxib were indistinguishable between drug treated 15-PGDH wild-type and null mice (39.5±9.7 versus 37.7±7.6 ng/mg protein, P=0.7) (FIG. 2A). […] Rather, the effective depletion of colonic PGE2 required the COX-2 inhibitor drug to act in concert with the independent prostaglandin degrading activity of 15-PGDH. […]
# [1] = Celecoxib tissue levels in colonic mucosa by LC/MS/MS; assay type: in vivo, mouse; conditions: 2 weeks celecoxib supplemented diet, mean ± SEM
# Description: Mouse studies were conducted in the Case Animal Resource Center under a protocol approved by the Institutional Animal Care and Use Committee. 15-Hydroxyprostaglandin dehydrogenase (15-PGDH) knockout mice on a C57BL/6J background were generated as described previously (Myung, S. J. et al., (2006) Proc Natl Acad Sci USA 103, 12098-102; Coggins, K. G. et al, (2002) Nat Med 8, 91-2) and were bred to generation F8 onto an FVB/N (Jackson Laboratory, Bar Harbor, Me.) background, with genotyping done as previously described (Myung, S. J. et al., (2006) Proc Natl Acad Sci U S A 103, 12098-102). 15-PGDH +/− mice generation F8 were intercrossed and siblings of 15-PGDH +/+ and −/− genotypes were selected out for studies with AOM and celecoxib. Eight- to 12-week-old mice were administered AOM by i.p. injection once weekly for 6 weeks at 10mg/kg dose (Sigma Chemical Co., St. Louis, Mo.). Mice were euthanized 24 weeks after the last AOM injection. […]
# Following 2 weeks of control or celecoxib supplemented diet mice were euthanized. […] The celecoxib level in the samples was determined by LC/MS/MS. […] Celecoxib was detected and quantified by operating the mass spectrometer in electrospray negative ion mode and monitoring the transition m/z 380.2>316.1. Quantification was done by comparing the sample peak areas to a standard curve and concentration of celecoxib was normalized by protein concentration.
# colorectal adenomas = experiment: Adenoma Prevention with Celecoxib (APC) trial, recurrent adenomas at 36 months; assay type: in vivo, human; conditions: 16 individuals, 36 months of daily celecoxib
# Source text: To test this hypothesis, we examined frozen biopsies of rectal mucosa obtained from 16 individuals at the time of their enrollment in the Adenoma Prevention with Celecoxib (APC) trial (Bertagnolli, M. M. et al., (2006) N Engl J Med 355, 873-84). These individuals were all at high risk for colon adenoma development based on having had multiple colon adenomas and/or adenomas greater than 5 mm in diameter prior to their enrollment. Following clearing of their colonic adenomas by colonoscopy, each individual received 36-months of daily treatment with celecoxib (Bertagnolli, M. M. et al., (2006) N Engl J Med 355, 873-84). […] In total 9 new adenomas were detected in these patients (FIG. 3). 15-PGDH levels among individuals who developed new adenomas were lower than 15-PGDH levels among individuals who remained adenoma free (P=0.04) (FIG. 3). […] The relationship of low 15-PGDH level to celecoxib resistance becomes even stronger if analyzed in terms of the numbers of new adenomas that individuals developed, with 8 of the 9 adenomatous polyps that recurred during celecoxib treatment arising in individuals with colonic 15-PGDH values below the cohort median (P=0.01), and with all 9 new adenomas arising in individuals with colonic 15-PGDH below the cohort mean (P=0.001) (FIG. 3). […]
# 15-PGDH mRNA = conditions: cited from earlier work
Compound,"AOM induced colon tumors per mouse (AOM induced colon tumors; 15-PGDH knockout (null) FVB mice, dietary celecoxib)","AOM induced large colon tumors (>1 mm) per mouse (AOM induced colon tumors; 15-PGDH knockout FVB mice, dietary celecoxib)","AOM induced colon tumors per mouse (AOM induced colon tumors; 15-PGDH wild-type FVB mice, dietary celecoxib 1250 mg/kg diet) [tumors per mouse]","AOM induced large colon tumors (>1 mm) per mouse (AOM induced colon tumors; 15-PGDH wild-type FVB mice, dietary celecoxib)",Prevention of AOM induced tumors >1 mm in size (AOM induced colon tumors; FVB mice (15-PGDH wild-type)) [%],"Colon adenomas in celecoxib treated 15-PGDH null mice relative to celecoxib treated wild-type littermates (AOM induced colon tumors; null versus wild-type, both celecoxib treated) [fold]",Colonic mucosal PGE2 level (PGE2; 15-PGDH knockout FVB mice) [ng/mg protein],Colonic mucosal PGE2 level (PGE2; 15-PGDH wild-type FVB mice) [ng/mg protein],Tissue level of celecoxib in colonic mucosa ([1]; 15-PGDH null mice) [ng/mg protein],Tissue level of celecoxib in colonic mucosa ([1]; 15-PGDH wild-type mice) [ng/mg protein],Total new adenomas detected (colorectal adenomas),Effect on 15-PGDH mRNA levels (15-PGDH mRNA)
Cc1ccc(-c2cc(C(F)(F)F)nn2-c2ccc(S(N)(=O)=O)cc2)cc1 [celecoxib],3.9±0.8,3.9±0.8 large tumors per knockout mouse,0.7±0.3,0.3±0.1,85,5.5,4.7±0.8,1.6±0.4,37.7±7.6,39.5±9.7,9,–
C#Cc1cccc(Nc2ncnc3cc(OCCOC)c(OCCOC)cc23)c1 [erlotinib],–,–,–,–,–,–,–,–,–,–,–,induce 15-PGDH mRNA levels
